The values below come from article PMC11949107, “Polyunsaturated fatty acids and their endocannabinoid-related metabolites activity at human TRPV1 and TRPA1 ion channels expressed in HEK-293 cells” (PeerJ, 2025).

As usually defined, the Emax is the greatest response seen or fitted, relative to the assay's reference.

Assay [1] has as its target T1, human TRPV1 (Homo sapiens, UniProt Q8NER1).
T1 construct: Life Technologies (cells); host or cells: Flp-In T-REx HEK-293
Put plainly: Calcium 5 dye [Ca]i assay in HEK-293 Flp-In T-REx cells expressing TRPV1 (agonist response). The following applies: for Change in Ca5 fluorescence, individual experiments (CRC raw data): TRPV1 cells. It counts as cell-based. The procedure, abridged: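 Tetracycline-induced (1 µg ml^−1, 4 h) HEK-293 T-REx cells loaded with Calcium 5 dye plus 1.25 mM probenecid for 1 h; agonist added after 1 min baseline (0.1% DMSO final), fluorescence (485/525 nm) read every 2 s for 5 min at 37 °C. Response as % change from baseline, solvent-subtracted; EC50/Emax from three-parameter logistic fit, given as pEC50.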

In assay [2] the target is T1, human TRPV1. Put plainly: PMA (phorbol ester) potentiation of TRPV1 responses in HEK-293 TRPV1 cells. The note with it: for [Ca]i response (change in fluorescence), individual replicates: sheet Figure 5(C). Type of assay: cell-based. Here is the method:
(§1) Intracellular calcium [Ca]i levels were assessed using the calcium 5 kit from Molecular Devices (# R8186, Sunnyvale, CA, USA) on a FlexStation 3 Microplate Reader (Molecular Devices, Sunnyvale, CA, USA). […] Probenecid (cat # 50027; Biotium) which helps to prevent expulsion of calcium indicator from the cells was added to a final concentration of 1.25 mM. 90 µL of the dye were loaded into each well of the plate and incubated for 1 h before reading in the FlexStation 3 at 37 °C. Fluorescence was recorded every 2 s (λ excitation = 485 nm, λ emission = 525 nm) for 5 min. After 1 min of baseline recording, 20 µL of the drug, dissolved in HBSS with 1% dimethyl sulfoxide (DMSO) (cat # D2650; Sigma-Aldrich, Melbourne, Australia) was added (final DMSO concentration was 0.1% in well).
We initially determined the effect of PMA, another phorbol ester that is a protein kinase C activator ([Jiang & Fleet, 2012]) on HEK-293 TRPV1 expressing cells.
(A) Response of HEK-293 TRPV1 expressing cells for PMA at various concentration. […] Drugs were added for the duration of the bar; (D) The effects of PUFAs after potentiation of TRPV1 by PMA. […] Changes in [Ca]i are expressed as percentage of the pre-drug baseline, with the response to PMA alone at 5 min subtracted. The black circles represent the response of PUFAs without PMA pretreatment while the pink circles represent the response of PUFAs after PMA potentiation.

Another assay relates to HEK-293 EV cells. In words: Calcium 5 dye [Ca]i assay in HEK-293 empty vector (EV) cells. The note with it: 10 µM; HEK-293 EV cells; percentage of predrug baseline. Type of assay: cell-based, human. The procedure, abridged:
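Tetracycline at 1 µg ml^−1 was added 4 h before testing; cells were loaded with Calcium 5 dye for 1 h and read at 37 °C, with drug added after 1 min baseline (final 0.1% DMSO). The response was the % change from the 60 s baseline after solvent subtraction, and EC50/Emax came from a three-parameter logistic fit, reported as pEC50.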

The target of assay [3] is T1, human TRPV1. In words: Pre-incubation with PUFAs or capsazepine, then capsaicin (10 nM) response in HEK-293 TRPV1 cells. It counts as cell-based. Here is the method: as §1, with “well). […]” for “well).”

Several values for one entry are separate records, joined by “and”; a condition that tells them apart may be missing. Identical values can stand only once.

T1 sequence (Q8NER1 whole entry): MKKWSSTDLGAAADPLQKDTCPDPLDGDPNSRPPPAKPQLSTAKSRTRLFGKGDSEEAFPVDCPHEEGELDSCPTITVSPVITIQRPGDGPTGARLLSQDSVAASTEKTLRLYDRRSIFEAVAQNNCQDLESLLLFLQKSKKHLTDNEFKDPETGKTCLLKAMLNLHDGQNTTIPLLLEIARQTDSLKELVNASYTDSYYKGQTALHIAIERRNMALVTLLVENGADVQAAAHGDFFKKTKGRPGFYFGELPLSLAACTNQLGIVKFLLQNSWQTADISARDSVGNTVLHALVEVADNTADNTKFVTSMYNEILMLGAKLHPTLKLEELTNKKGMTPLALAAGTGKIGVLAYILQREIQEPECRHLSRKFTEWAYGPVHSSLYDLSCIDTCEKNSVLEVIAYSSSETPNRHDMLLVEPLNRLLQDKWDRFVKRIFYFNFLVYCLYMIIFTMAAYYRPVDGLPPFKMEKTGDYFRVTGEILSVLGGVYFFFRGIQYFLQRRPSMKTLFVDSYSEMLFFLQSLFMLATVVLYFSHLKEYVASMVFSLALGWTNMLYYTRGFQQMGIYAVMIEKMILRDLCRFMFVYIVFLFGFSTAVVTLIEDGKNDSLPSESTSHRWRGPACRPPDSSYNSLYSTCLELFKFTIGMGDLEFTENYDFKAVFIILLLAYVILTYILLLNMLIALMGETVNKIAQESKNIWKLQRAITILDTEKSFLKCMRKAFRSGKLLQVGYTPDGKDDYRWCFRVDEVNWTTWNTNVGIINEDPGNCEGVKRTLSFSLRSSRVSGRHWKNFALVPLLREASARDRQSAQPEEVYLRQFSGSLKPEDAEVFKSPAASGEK

As to `COc1cc(CNC(=O)CCCC/C=C/C(C)C)ccc1O` [Capsaicin], the “Elevation of [Ca]i in HEK-293 TRPV1 cells compared with HEK-293 EV cells” value on human TRPV1 [1] (10 µM) is listed as “significantly greater”. The “Change of Ca5 fluorescence, Mean ± SEM, TRPV1 (10 µM)” value at human TRPV1 [1] (10 µM, HEK-293 TRPV1 cells, percentage of predrug baseline) is recorded as 350 ± 33 %. Moreover, the Emax at 30 µM at human TRPV1 [1] (HEK293, read-out: Emax ± SEM % TRPV1 (30 µM)) is 340 ± 19%. Besides, the “TRPV1 response, Mean± SEM (N)” value on human TRPV1 [1] (highest concentration of capsaicin (10 µM)) is listed as 337 ± 56 (21). In addition, the “Change in Ca5 fluorescence, individual experiments (CRC raw data)” value on human TRPV1 [1] (log concentration -5 (M)) was 470.33 and 172.951 and 473.364 and 509.446 and 171.926 and 427.551 and 233.547 and 218.906 and 339.94 and 178.11 and 253.39 and 197.967 and 463.085 and 202.235 and 472.577 and 462.537 and 153.101 and 535.708 and 529.643 and 524.333; on human TRPV1 [1] (log concentration -6 (M)), 464.868 and 165.225 and 461.65 and 520.53 and 312.706 and 3.214 and 3.201 and 3.988 and 340.169 and 187.118 and 486.026 and 246.165 and 485.213; at human TRPV1 [1] (log concentration -7 (M)) it was 449.588 and 119.691 and 406.342 and 2.432 and 332.379 and 480.521 and 322.808 and 86.6522 and 310.081 and 147.599 and 431.922 and 467.245; on human TRPV1 [1] (log concentration -7.52288 (M)), 356.845 and 111.895 and 323.852 and 3.161 and 274.896 and 259.762 and 73.7365 and 34.2854 and 273.106 and 132.986 and 393.207 and 420.023 and 372.386; on human TRPV1 [1] (log concentration -8 (M)) it was 5.385 and 96.7773 and 164.958 and 3.572 and 5.951 and 47.2327 and 7.175 and 1.822 and 309.776 and 125.652 and 333.972 and 270.42 and 149.94; at human TRPV1 [1] (log concentration -8.52288 (M)), 11.2452 and 61.0751 and 5.8468 and 39.7141 and 6.931 and 3.397 and 5.378 and 0.9947 and 335.917 and 103.111 and 65.1245 and 4.361 and 1.4546. In addition, the “Change in Ca5 fluorescence, individual experiments (CRC raw data)” value on human TRPV1 [1] (log concentration -9 (M)) was 6.236 and 19.5627 and 8.465 and 57.6325 and 2.89 and 1.796 and 10.3317 and 2.025 and 308.34 and 50.3171 and 51.1654 and 4.4283 and 2.369 and 122.651 and 6.769 and 5.267. Also, the “Change in Ca5 fluorescence” value at human TRPV1 [1] (maximal effective concentration, HEK-293 TRPV1 cells, dye saturation control) came to 435 ± 15%. In addition, the “[Ca]i response (change in fluorescence), individual replicates” value (from here on “[Ca]i response (change in fluorescence)”) is 595.541 and 626.277 and 602.254 and 594.454 and 590.074 and 541.046 and 516.667 on human TRPV1 [2] (Capsaicin alone, concentration -5 (log)); 552.521 and 565.654 and 354.62 and 545.98 and 564.249 and 584.634 and 580.153 at human TRPV1 [2] (Capsaicin alone, concentration -6 (log)); 532.091 and 453.931 and 457.847 and 272.568 at human TRPV1 [2] (Capsaicin alone, concentration -7.52288 (log)); 105.919 and 177.189 and 79.3195 and 30.3097 and 60.6584 and 319.686 and 144.106 on human TRPV1 [2] (Capsaicin alone, concentration -8 (log)); 2.139 and 1.734 and 6.239 and 49.459 and 10.1781 and -5.201 and 2.9246 and 2.502 and 16.6604 and 25.7998 and 147.975 and 180.247 at human TRPV1 [2] (Capsaicin alone, concentration -8.52288 (log)); 2.491 and -0.4612 and 4.215 and 6.618 and 6.288 and 4.839 and 3.5734 and 0.9298 and 2.514 and -2.854 and 3.184 and 5.152 at human TRPV1 [2] (Capsaicin alone, concentration -9 (log)). In addition, the “[Ca]i response (change in fluorescence)” value is -1.109 and 5.021 and -0.4125 and -2.624 and 0.2107 at human TRPV1 [2] (Capsaicin alone, concentration -10 (log)); 496.984 and 417.588 at human TRPV1 [2] (Capsaicin post-PMA, concentration -5 (log)); 544.156 and 380.208 and 494.359 and 527.721 and 402.607 and 284.086 on human TRPV1 [2] (Capsaicin post-PMA, concentration -6 (log)); 396.653 and 394.172 and 495.495 and 292.964 at human TRPV1 [2] (Capsaicin post-PMA, concentration -7.52288 (log)); 292.695 and 167.258 and 234.279 and 203.284 and 320.763 and 311.597 and 228.909 on human TRPV1 [2] (Capsaicin post-PMA, concentration -8 (log)); 137.626 and 123.803 and 108.674 and 62.3148 and 135.616 and 311.329 and 67.1431 and 138.197 and 73.5753 and 51.0772 on human TRPV1 [2] (Capsaicin post-PMA, concentration -8.52288 (log)). The “[Ca]i response (change in fluorescence)” value is 41.3533 and 39.7921 and 40.9396 and 31.7003 and 53.9609 and 52.809 and 35.9713 and 49.984 and 39.816 and 29.7359 and 17.3567 on human TRPV1 [2] (Capsaicin post-PMA, concentration -9 (log)); 44.473 and 19.9944 and 42.7227 and 36.7683 and 31.3318 and 10.3982 on human TRPV1 [2] (Capsaicin post-PMA, concentration -10 (log)). In addition, the “HBSS post Capsaicin, individual experiments” value on human TRPV1 [2] (HBSS after capsaicin 10 nM) was 14.4552 and 24.0374 and 16.1823. Also, the “TRPV1 response after exposure to PMA” value on human TRPV1 [2] (PMA 100 nM, 5 min pretreatment) was “amplified”. The “Drugs post-PMA, individual experiments” value at human TRPV1 [2] (capsaicin 10 nM after PMA 100 nM for 5 min, response to PMA alone subtracted) was 292.695 and 167.258 and 234.279 and 203.284 and 320.763. At human TRPV1 [2] (capsaicin 10 nM alone), the “Capsaicin response without PMA, individual experiments” value was 226.255 and 133.384 and 132.765. Moreover, the “Drugs alone, individual experiments” value at human TRPV1 [2] (capsaicin 10 nM without PMA pretreatment) was 79.3195 and 30.3097 and 60.6584. In the assay with HEK-293 EV cells, the “Change of Ca5 fluorescence, Mean ± SEM, EV (10 µM)” value was found to be 12 ± 2%.

In the case of `Oc1cc2c(cc1O)CN(C(=S)NCCc1ccc(Cl)cc1)CCC2` [capsazepine, reference compound], the “Effect of pre-treatment on the capsaicin response” value on human TRPV1 [3] (10 µM, 5 min exposure, then capsaicin 10 nM) was “prevented”. The “Post-capsaicin: response to subsequent capsaicin addition, individual experiments” value on human TRPV1 [3] (capsaicin 10 nM after 5 min drug 10 µM, TRPV1 cells, listed as CAPZ) was 10.3375 and -4.09 and 24.8571 and 12.9593 and -2.666 and 6.069. The “Pre-capsaicin: response to first drug, individual experiments” value at human TRPV1 [3] (drug 10 µM for 5 min, TRPV1 cells, listed as CAPZ) is 25.3514 and 3.867 and 12.8382 and 10.4656 and 4.742 and 37.2822.
